Earlier results, collected in patent publication EP3111929B1, “ORAL DISINTEGRATING FILM FORMULATION CONTAINING TADALAFIL AND PREPARATION METHOD THEREFOR” (Wooshin Labottach Co., Ltd., priority 2014, dated 2015).

Assays:
[1] = water; background statement
PDE5/PDE6 = conditions: compared with sildenafil; background statement

For `CN1CC(=O)N2[C@H](c3ccc4c(c3)OCO4)c3[nH]c4ccccc4c3C[C@@H]2C1=O` [tadalafil, (6R, 12aR)-6-(1,3-benzodioxol-5-yl)-2,3,6,7,12,12a-hexahydro-2-methyl-pyrazino[1',2':1,6]p yrido[3,4-b]indole-1,4-dion], the solubility [1] is given as “actually water-insoluble” and the “selectivity of PDE5/PDE6” value (PDE5/PDE6) is given as “better than sildenafil”.
